Laboratory results taken from PubChem BioAssay AID328 (DTP/NCI, 2004).
“And” between values parts separate entries of the source, which are not always exact repeats. Identical values can stand only once. Toxic doses and inconclusive results are not listed. Rule for the calls: active = survival T/C of 150% or more; inactive = T/C below 125% in these data. Non-standard residues stand in square brackets, D forms with d. Residues, ends and D or L forms follow the SMILES beside them. ξ: configuration not given here. *: point of attachment. Nphe = O=C(O)CNCc1ccccc1; ξF = NC(Cc1ccccc1)C(=O)O; Ms = CS(=O)(=O)*

Test system: BDF1 mice, P388 leukemia ip, median survival T/C
Assay: NCI In Vivo Anticancer Drug Screen. Data for tumor model P388 Leukemia (intraperitoneal) in B6D2F1 (BDF1) mice
Conditions: endpoint: median survival time, higher = longer survival
Procedure, shortened: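 Each value expresses how treatment altered survival: treated-mouse outcome over vehicle-mouse outcome, both groups bearing the transplanted tumour.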

[1] = dose: 50.0 mg/kg/injection, schedule: Q01DX009 (ip), vehicle: water
[2] = dose: 100.0 mg/kg/injection, schedule: Q01DX009 (ip), vehicle: saline with Tween-80
[3] = dose: 100.0 mg/kg/injection, schedule: Q04DX003 (ip), vehicle: saline with Tween-80
[4] = dose: 200.0 mg/kg/injection, schedule: Q01DX009 (ip), vehicle: saline with Tween-80
[5] = dose: 200.0 mg/kg/injection, schedule: Q04DX003 (ip), vehicle: saline with Tween-80
[6] = dose: 400.0 mg/kg/injection, schedule: Q04DX003 (ip), vehicle: saline with Tween-80
[7] = dose: 50.0 mg/kg/injection, schedule: Q01DX009 (ip), vehicle: saline
[8] = dose: 100.0 mg/kg/injection, schedule: Q01DX009 (ip), vehicle: saline
[9] = dose: 200.0 mg/kg/injection, schedule: Q01DX009 (ip), vehicle: saline
[10] = dose: 50.0 mg/kg/injection, schedule: Q04DX003 (ip), vehicle: other
[11] = dose: 100.0 mg/kg/injection, schedule: Q04DX003 (ip), vehicle: other

Measured: T/C

O=C(/C=C/c1ccccc1)c1ccc2c(c1)OCO2
inactive: [1] 99 % of control | dose: 50.0 mg/kg/injection, schedule: Q04DX003 (ip), vehicle: water 99 % of control | dose: 100.0 mg/kg/injection, schedule: Q01DX009 (ip), vehicle: water 108 % of control | dose: 100.0 mg/kg/injection, schedule: Q04DX003 (ip), vehicle: water 94 % of control | dose: 200.0 mg/kg/injection, schedule: Q01DX009 (ip), vehicle: water 101 % of control | dose: 200.0 mg/kg/injection, schedule: Q04DX003 (ip), vehicle: water 103 % of control | dose: 400.0 mg/kg/injection, schedule: Q01DX009 (ip), vehicle: water 108 % of control | dose: 400.0 mg/kg/injection, schedule: Q04DX003 (ip), vehicle: water 94 % of control

CO[C@H]1C[C@H](O[C@H]2CC[C@]3(C=O)[C@H]4CC[C@]5(C)[C@@H](C6=CC(=O)OC6)CC[C@]5(O)[C@@H]4CC[C@]3(O)C2)O[C@H](C)[C@H]1O
inactive: dose: 0.62 mg/kg/injection, schedule: Q01DX010 (ip), vehicle: steriod suspending solution 95 % of control | dose: 1.25 mg/kg/injection, schedule: Q01DX010 (ip), vehicle: steriod suspending solution 90 % of control | dose: 2.5 mg/kg/injection, schedule: Q01DX010 (ip), vehicle: steriod suspending solution 95 % of control | dose: 5.0 mg/kg/injection, schedule: Q01DX010 (ip), vehicle: steriod suspending solution 90 % of control

COc1ccc2c(c1C)CCC1(CO)C(C(C)=O)=CCC21 (configuration not stated)
inactive: dose: 100.0 mg/kg/injection, schedule: Q01DX009 (ip), vehicle: Klucel (hydroxypropylcellulose) (HPC) 109 % of control | dose: 100.0 mg/kg/injection, schedule: Q04DX003 (ip), vehicle: Klucel (hydroxypropylcellulose) (HPC) 100 % of control | dose: 200.0 mg/kg/injection, schedule: Q01DX009 (ip), vehicle: Klucel (hydroxypropylcellulose) (HPC) 95 % of control | dose: 200.0 mg/kg/injection, schedule: Q04DX003 (ip), vehicle: Klucel (hydroxypropylcellulose) (HPC) 100 % of control | dose: 400.0 mg/kg/injection, schedule: Q01DX009 (ip), vehicle: Klucel (hydroxypropylcellulose) (HPC) 100 % of control | dose: 400.0 mg/kg/injection, schedule: Q04DX003 (ip), vehicle: Klucel (hydroxypropylcellulose) (HPC) 100 % of control

CCOC(=O)C1C(=O)NC(=O)CC1C (configuration not stated)
inactive: [2] 99 % of control | [3] 96 % of control | [4] 101 % of control | [5] 99 % of control | dose: 400.0 mg/kg/injection, schedule: Q01DX009 (ip), vehicle: saline with Tween-80 105 % of control | [6] 107 % of control

O=C1C=CC(=O)N1Cc1ccco1
inactive: [7] 100 % of control | [8] 91 % of control and 95 % of control | [9] 100 % of control | dose: 400.0 mg/kg/injection, schedule: Q01DX009 (ip), vehicle: saline 91 % of control

C[C@]12CC[C@H](O)CC1=CC[C@@H]1[C@@H]2CC[C@]2(C)c3nc4ccccc4cc3C[C@@H]12
inactive: [5] 95 % of control

N#CC(O)c1ccccc1 (configuration not stated)
inactive: dose: 2.5 mg/kg/injection, schedule: Q01DX010 (ip), vehicle: acetone 107 % of control | dose: 5.0 mg/kg/injection, schedule: Q01DX010 (ip), vehicle: acetone 92 % of control | dose: 10.0 mg/kg/injection, schedule: Q01DX010 (ip), vehicle: acetone 92 % of control

CC(O)CN1CNC(=S)NC1 (configuration not stated)
inactive: [7] 99 % of control | [8] 101 % of control | [9] 106 % of control

CC(C)C1(C(=O)NNC(=O)CCCc2ccc(N(CCCl)CCCl)cc2)OC2(O)CCCCCN2C1=O (configuration not stated)
active: [10] 175 % of control | [11] 220 % of control

O=S(=O)(Cl)CCCBr
inactive: dose: 50.0 mg/kg/injection, schedule: Q01DX001 (ip), vehicle: saline sonified 100 % of control | dose: 100.0 mg/kg/injection, schedule: Q01DX001 (ip), vehicle: saline sonified 100 % of control | dose: 200.0 mg/kg/injection, schedule: Q01DX001 (ip), vehicle: saline sonified 100 % of control

CCSc1ncnc2c1ncn2C1OC(CO)C(O)C1O (configuration not stated)
inactive: dose: 50.0 mg/kg/injection, schedule: Q01DX009 (ip), vehicle: saline with Tween-80 95 % of control | [2] 117 % of control | [4] 91 % of control

Cc1nc2c(=O)[nH]n(C)c2nc1C
inactive: [2] 97 % of control | [3] 95 % of control | [4] 97 % of control | [5] 94 % of control | [6] 99 % of control

COC(=O)c1ccc(N)c(C(Sc2ccccc2)c2ccccc2)c1 (configuration not stated)
inactive: dose: 50.0 mg/kg/injection, schedule: Q04DX002 (ip), vehicle: saline with Tween-80 98 % of control | dose: 100.0 mg/kg/injection, schedule: Q04DX002 (ip), vehicle: saline with Tween-80 90 % of control | dose: 200.0 mg/kg/injection, schedule: Q04DX002 (ip), vehicle: saline with Tween-80 99 % of control

CC1(C)N=C(N)N=C(N)N1c1cccc(CCCCc2ccc(S(=O)(=O)F)cc2)c1
inactive: dose: 2.75 mg/kg/injection, schedule: Q01DX009 (ip), vehicle: saline 120 % of control
active: dose: 8.25 mg/kg/injection, schedule: Q01DX009 (ip), vehicle: saline 150 % of control | dose: 18.75 mg/kg/injection, schedule: Q01DX009 (ip), vehicle: saline 150 % of control

O=C(CS)CS
inactive: dose: 6.25 mg/kg/injection, schedule: Q01DX009 (ip), vehicle: water 102 % of control | dose: 12.5 mg/kg/injection, schedule: Q01DX009 (ip), vehicle: water 102 % of control | dose: 25.0 mg/kg/injection, schedule: Q01DX009 (ip), vehicle: water 93 % of control | [1] 104 % of control

Nc1nc(C(F)(F)F)c(CCCCc2ccccc2)c(=O)[nH]1
inactive: dose: 100.0 mg/kg/injection, schedule: Q01DX001 (ip), vehicle: Klucel (hydroxypropylcellulose) (HPC) 111 % of control | dose: 200.0 mg/kg/injection, schedule: Q01DX001 (ip), vehicle: Klucel (hydroxypropylcellulose) (HPC) 117 % of control | dose: 400.0 mg/kg/injection, schedule: Q01DX001 (ip), vehicle: Klucel (hydroxypropylcellulose) (HPC) 98 % of control

CN(C)c1ccc(C=Nc2c(N)n(C)c(=O)n(C)c2=O)cc1
inactive: [3] 101 % of control | [5] 92 % of control | [6] 93 % of control

Cn1ncc2cncnc21
inactive: dose: 100.0 mg/kg/injection, schedule: Q04DX003 (ip), vehicle: alcohol 113 % of control | dose: 200.0 mg/kg/injection, schedule: Q04DX003 (ip), vehicle: alcohol 95 % of control | dose: 400.0 mg/kg/injection, schedule: Q04DX003 (ip), vehicle: alcohol 100 % of control

O=C(CCl)NCc1cnccn1
inactive: dose: 25.0 mg/kg/injection, schedule: Q01DX009 (ip), vehicle: saline 107 % of control | [7] 102 % of control | [8] 108 % of control | dose: 100.0 mg/kg/injection, schedule: Q04DX003 (ip), vehicle: saline 94 % of control | [9] 102 % of control | dose: 200.0 mg/kg/injection, schedule: Q04DX003 (ip), vehicle: saline 117 % of control

CS(=O)(=O)N(CC(=O)NC(Cc1ccccc1)C(=O)O)Cc1ccccc1 (configuration not stated) (Ms-[Nphe]-[ξF]-OH)
inactive: dose: 12.5 mg/kg/injection, schedule: Q04DX003 (ip), vehicle: sodium bicarbonate 100 % of control | dose: 25.0 mg/kg/injection, schedule: Q01DX009 (ip), vehicle: other 114 % of control | dose: 25.0 mg/kg/injection, schedule: Q04DX003 (ip), vehicle: other 94 % of control | dose: 25.0 mg/kg/injection, schedule: Q04DX003 (ip), vehicle: sodium bicarbonate 106 % of control | dose: 50.0 mg/kg/injection, schedule: Q01DX009 (ip), vehicle: other 100 % of control | [10] 103 % of control | dose: 50.0 mg/kg/injection, schedule: Q04DX003 (ip), vehicle: sodium bicarbonate 104 % of control | dose: 100.0 mg/kg/injection, schedule: Q01DX009 (ip), vehicle: other 114 % of control | [11] 106 % of control | dose: 100.0 mg/kg/injection, schedule: Q04DX003 (ip), vehicle: sodium bicarbonate 96 % of control | dose: 200.0 mg/kg/injection, schedule: Q04DX003 (ip), vehicle: other 104 % of control | dose: 200.0 mg/kg/injection, schedule: Q04DX003 (ip), vehicle: sodium bicarbonate 98 % of control | dose: 400.0 mg/kg/injection, schedule: Q04DX003 (ip), vehicle: other 103 % of control | dose: 400.0 mg/kg/injection, schedule: Q04DX003 (ip), vehicle: sodium bicarbonate 90 % of control
